Data as given in ChEMBL document CHEMBL1275264, “The GABA(A) receptor as a target for photochromic molecules” (Bioorg Med Chem, 2010).
pKi: −log10 of the molar value.

Experiments:
[1] = molecular target: GABA A receptor alpha-4/beta-3/gamma-2 (Homo sapiens, UniProt P18507+P28472+P48169); test: Binding affinity to human recombinant GABA alpha-4-beta-3-gamma-2 receptor; type: protein-complex assay
[2] = molecular target: T1, GABA-A receptor; alpha-5/beta-3/gamma-2 (Homo sapiens, UniProt P18507+P28472+P31644); test: Binding affinity to human recombinant GABA alpha-5-beta-3-gamma-2 receptor; type: protein-complex assay
T1 sequence (P18507 whole entry): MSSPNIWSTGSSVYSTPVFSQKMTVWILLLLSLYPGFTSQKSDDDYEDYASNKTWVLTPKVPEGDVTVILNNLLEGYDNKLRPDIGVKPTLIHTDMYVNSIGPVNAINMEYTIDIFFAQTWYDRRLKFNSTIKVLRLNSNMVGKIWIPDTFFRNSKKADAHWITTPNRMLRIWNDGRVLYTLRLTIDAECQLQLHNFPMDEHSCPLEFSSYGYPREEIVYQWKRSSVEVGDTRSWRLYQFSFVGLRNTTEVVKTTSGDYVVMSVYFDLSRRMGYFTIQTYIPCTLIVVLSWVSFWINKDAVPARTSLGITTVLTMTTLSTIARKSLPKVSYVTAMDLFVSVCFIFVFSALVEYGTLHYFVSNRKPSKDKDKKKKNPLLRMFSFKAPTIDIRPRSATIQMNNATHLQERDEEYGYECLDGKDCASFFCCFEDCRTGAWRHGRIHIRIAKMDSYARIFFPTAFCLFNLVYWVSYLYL
T1 sequence (P28472 whole entry): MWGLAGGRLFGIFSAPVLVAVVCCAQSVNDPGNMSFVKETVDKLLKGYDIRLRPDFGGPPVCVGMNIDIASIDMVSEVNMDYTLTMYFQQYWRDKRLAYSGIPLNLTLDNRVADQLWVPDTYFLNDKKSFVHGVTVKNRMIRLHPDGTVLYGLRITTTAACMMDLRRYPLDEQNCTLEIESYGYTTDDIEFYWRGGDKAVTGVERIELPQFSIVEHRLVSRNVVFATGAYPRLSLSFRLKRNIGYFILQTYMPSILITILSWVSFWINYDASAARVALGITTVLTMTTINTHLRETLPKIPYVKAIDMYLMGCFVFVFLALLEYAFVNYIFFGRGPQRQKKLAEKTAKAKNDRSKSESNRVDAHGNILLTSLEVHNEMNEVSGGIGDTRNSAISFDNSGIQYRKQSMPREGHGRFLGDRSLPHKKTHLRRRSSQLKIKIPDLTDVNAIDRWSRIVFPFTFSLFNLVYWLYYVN
T1 sequence (P31644 whole entry): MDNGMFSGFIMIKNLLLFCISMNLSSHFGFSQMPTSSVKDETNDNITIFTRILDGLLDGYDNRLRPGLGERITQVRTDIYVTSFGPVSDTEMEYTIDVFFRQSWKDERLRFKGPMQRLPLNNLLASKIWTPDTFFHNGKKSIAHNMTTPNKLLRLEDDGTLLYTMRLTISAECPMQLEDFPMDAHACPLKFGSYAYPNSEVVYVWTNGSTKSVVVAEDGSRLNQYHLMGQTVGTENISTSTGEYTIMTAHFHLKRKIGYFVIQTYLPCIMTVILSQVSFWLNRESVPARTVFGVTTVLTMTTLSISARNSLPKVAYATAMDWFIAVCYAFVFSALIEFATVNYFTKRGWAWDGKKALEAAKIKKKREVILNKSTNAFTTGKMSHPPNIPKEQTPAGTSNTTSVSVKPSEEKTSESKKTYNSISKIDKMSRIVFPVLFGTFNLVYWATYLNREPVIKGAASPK

Chain of GABA A receptor alpha-4/beta-3/gamma-2 (P48169 whole entry, one chain of several): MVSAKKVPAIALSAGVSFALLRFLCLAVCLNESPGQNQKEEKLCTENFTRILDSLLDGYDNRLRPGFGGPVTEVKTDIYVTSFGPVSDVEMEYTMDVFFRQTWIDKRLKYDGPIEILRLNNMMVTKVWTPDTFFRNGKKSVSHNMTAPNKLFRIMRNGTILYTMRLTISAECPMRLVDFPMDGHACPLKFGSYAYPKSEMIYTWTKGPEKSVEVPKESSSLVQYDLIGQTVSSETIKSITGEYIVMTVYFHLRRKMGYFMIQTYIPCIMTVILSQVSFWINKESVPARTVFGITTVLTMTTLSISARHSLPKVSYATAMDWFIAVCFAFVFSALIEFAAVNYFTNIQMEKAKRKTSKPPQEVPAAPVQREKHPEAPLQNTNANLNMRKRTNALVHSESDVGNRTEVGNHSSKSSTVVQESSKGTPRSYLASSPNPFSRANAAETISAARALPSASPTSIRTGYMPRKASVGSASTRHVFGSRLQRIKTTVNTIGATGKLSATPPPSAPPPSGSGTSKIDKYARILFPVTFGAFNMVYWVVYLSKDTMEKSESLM

SMILES	pKi [1]	pKi [2]
CC(=O)c1ncn2c1CN(C)C(=O)c1cc(Cl)ccc1-2	5.58	4.53
COCc1ncn2c1CN(C)C(=O)c1cc(Cl)ccc1-2	7.41	< 6.52
